Laboratory results reported in patent publication US5032584A, “S-diastereomer of an n^6 -((2-hydroxypropyl)aryl)adenosine and its medicinal uses” (G. D. Searle & Co., priority 1988, dated 1991).
Entries after “also recorded” stand apart in the source; their conditions may differ.

Legend:
[1] = test system: adenosine A1 receptor in the granular juxtaglomerular cells of the kidney; details: Federation Proceedings 44:879 & 1643, 1985; cited from earlier work
mice [2] = assay: Behavioral toxicity in mice after 75 mg/kg IP; type: in vivo; design: key to Motor depression / Ptosis / Respiratory depression / Flaccidity / Loss of righting reflex: +: toxic symptom observed
Experimental: (§1) Adenosine analogs tend to produce sedation and central nervous system depression which have prevented their therapeutic utility. The compounds of the invention, at doses which lower arterial pressure in the SHR, show no evidence of CNS depression. The ataxia produced by compounds of the present invention was measured in mice by injecting the compounds IP at doses of 32, 56, or 75 mg/kg in an aqueous suspension, n=7 per dose. The mice had previously been trained to remain on a rotating rod. After dosing, the percent of mice unable to remain on the rotating rod was determined. […] The mice were also observed at various time intervals for behavioral signs of toxicity.

[3] = test system: plasma renin activity (PRA); assay: Change in plasma renin activity in the bilateral renal artery ligated rat; type: in vivo, Sprague-Dawley rats; details: 1 mg/kg I.V.; for Prevention of PRA increase (in words): 30 and 60 minutes
Experimental: Adenosine Al receptor stimulation will inhibit the release of renin from the kidney. A stimulus for the release of renin is renal ischemia. The ability of the compounds of the present invention to prevent an increase in PRA following renal ischemia was tested in rats with both renal arteries ligated. Sprague-Dawley rats were anesthetized with ether and the renal arteries were ligated. Three to five hours after anesthesia, arterial blood was sampled and compounds I and II were administered in polyethylene glycol at 1 mg/kg I.V. At 30 and 60 minutes after administration, arterial blood was sampled for PRA measurement by the method of Sealy, J. E. et al., Cardiovasc. Med. 2:1079, 1977.

mice [4] = assay: Ataxia on the rotating rod in mice; type: in vivo; details: for Percent ataxic, 0.5 hour / Percent ataxic, 3 hour: 54 ± 12 mg/kg ip (pooled 32, 56, 75 mg/kg)
Experimental: as §1

Solubility in MeOH = type: physicochemical; details: S isomer vs R isomer
[5] = test system: spontaneously hypertensive rats (SHR); assay: Effects on mean arterial pressure and heart rate in conscious spontaneously hypertensive rats (i.v. or intragastric); type: in vivo, rat
Experimental: The effects of compounds I and II were tested intravenously or intragastrically in conscious spontaneously hypertensive rats (SHR). The rats were anesthetized with ether and the left carotid artery and right jugular vein were cannulated with polyethylene tubing. The rats were allowed three to five hours recovery from anesthesia for the I.V. studies and 12 to 18 hours for the oral studies. Mean arterial pressure (MAP, in mm/Hg) and heart rate (HR, beats/min.) were measured from the artery; intravenous administration of compounds was performed by injection into the vein. Oral administration was performed by gastric intubation. Compounds were dissolved in DMSO for I.V. studies and injected in volumes of 100 μ1/kg or less (N=5 per pound). Doses were 3 to 1,000 μg/kg. Compounds were dissolved in polyethylene glycol for oral administration and injected in volumes of 1 ml/kg at a dose of 20 mg/kg/day for three days (N=3 to 6 per compound).
The resting MAP and HR for the SHR ranged between 160-200 mm Hg and 330/350 b/min., respectively.

[6] = 20 mg/kg intragastric, day 2 of oral administration

For `OC[C@H]1O[C@@H](n2cnc3c(NCC(O)COc4cccc5ccccc45)ncnc32)[C@H](O)[C@@H]1O` (mixture of isomers) [Compound I, N(6)-[2-hydroxy-3-(1-naphthyloxy)propyl]-adenosine], the “Binding to adenosine A1 receptor and effect on renin release, blood pressure, heart rate (in words)” value [1] is given as “binds to the adenosine Al receptor in the granular juxtaglomerular cells of the kidney to inhibit release of renin into the plasma, ultimately resulting in a reduction in circulating angiotensin II, thus reducing arterial blood pressure and heart rate in hypertensive models”, the Flaccidity (mice [2]; 75 mg/kg IP, 18-20 h) is given as “+” and the “Flaccidity, incidence (footnote *)” value (mice [2]; 75 mg/kg IP, 18-20 h) is given as 2/7. The Motor depression (mice [2]; 75 mg/kg IP, 18-20 h) was “+”, the Ptosis (mice [2]; 75 mg/kg IP, 18-20 h) was “+” and the Respiratory depression (mice [2]; 75 mg/kg IP, 18-20 h) was “+”. The Motor depression (mice [2]; 75 mg/kg IP, 0.5 h) was “+”, the Ptosis (mice [2]; 75 mg/kg IP, 0.5 h) was “+” and the Respiratory depression (mice [2]; 75 mg/kg IP, 0.5 h) was “+”. The “Behavioral toxicity (in words)” value (mice [2]; 75 mg/kg IP, 3 h) was “flaccidity and loss of righting reflex”, the Flaccidity (mice [2]; 75 mg/kg IP, 3 h) was “+” and the “Loss of righting reflex” value (mice [2]; 75 mg/kg IP, 3 h) was “+”. For the same compound, the Motor depression (mice [2]; 75 mg/kg IP, 3 h) was “+”, the Ptosis (mice [2]; 75 mg/kg IP, 3 h) was “+” and the Respiratory depression (mice [2]; 75 mg/kg IP, 3 h) was “+”. For the same compound, the “Prevention of PRA increase (in words)” value [3] was “prevented to the same extent”, the “Percent ataxic, 0.5 hour” value (mice [4]) was 33 ± 10% and the “Percent ataxic, 3 hour” value (mice [4]) was 95 ± 5%.

For `OC[C@H]1O[C@@H](n2cnc3c(NC[C@H](O)COc4cccc5ccccc45)ncnc32)[C@H](O)[C@@H]1O` [Compound II, N^6-[2S-hydroxy-3-(1naphthalenyloxy)propyl]-adenosine], the “Solubility in MeOH (in words)” value (Solubility in MeOH) was “less soluble in MeOH”, the Flaccidity (mice [2]; 75 mg/kg IP, 18-20 h) was “+” and the Motor depression (mice [2]; 75 mg/kg IP, 18-20 h) was “+”. For the same compound, the Ptosis (mice [2]; 75 mg/kg IP, 18-20 h) was “+”, the Motor depression (mice [2]; 75 mg/kg IP, 0.5 h) was “+” and the Ptosis (mice [2]; 75 mg/kg IP, 0.5 h) was “+”. For the same compound, the Motor depression (mice [2]; 75 mg/kg IP, 3 h) was “+”, the Ptosis (mice [2]; 75 mg/kg IP, 3 h) was “+” and the Motor depression (mice [2]; 75 mg/kg IP, 24 h) was “+”. The “Motor depression, incidence” value (mice [2]; 75 mg/kg IP, 24 h) was 5/7, the Ptosis (mice [2]; 75 mg/kg IP, 24 h) was “+” and the “Ptosis, incidence” value (mice [2]; 75 mg/kg IP, 24 h) was 5/7. For the same compound, the “Respiratory depression, incidence” value (mice [2]; 75 mg/kg IP, 24 h) was 5/7, the Respiratory depression (mice [2]; mouse, in vivo) was “+” and the “Maximum decrease at 20 mg/kg ig, HR” value [5, 6] was 202 ± 24 b/min. The “Maximum decrease at 20 mg/kg ig, MAP” value [5, 6] was 62 ± 7 mmHg, the ED (HR decrease by 100 b/min) ([5]; Rattus norvegicus, iv, i.v. in DMSO, read-out: IV dose to decrease HR by 100 b/min) was 0.036 ± 0.0012 mg/kg and the ED (MAP decrease by 40 mmHg) ([5]; Rattus norvegicus, iv, i.v. in DMSO, read-out: IV dose to decrease MAP by 40 mmHg) was 0.047 ± 0.0012 mg/kg. The “Prevention of PRA increase (in words)” value [3] was “prevented to the same extent”, the “Change in PRA, 30 minutes” value ([3]; 30 min after dosing) was -11.7 ± 3.5 ngAI/ml/hr and the “Change in PRA, 60 minutes” value ([3]; 60 min after dosing) was -13.8 ± 4.9 ngAI/ml/hr. For the same compound, the “Percent ataxic, 0.5 hour” value (mice [4]) was 14 ± 8%, the “Percent ataxic, 3 hour” value (mice [4]) was 48 ± 21% and the “Central nervous system toxicity (in words)” value (mice [4]; compared to compound I / racemic mixture) was “less CNS toxic than compound I, especially with regard to ataxia; also recorded: less central nervous system toxicity than the racemic mixture”. For the same compound, the “Ataxia / motor toxicity (in words)” value (mice [4]; mice, ip, compared to compound I) was “less ataxia at 0.5 or 3 hours as compared to compound I; also recorded: less motor toxicity than compound I”.

In the case of `OC[C@H]1O[C@@H](n2cnc3c(NC[C@@H](O)COc4cccc5ccccc45)ncnc32)[C@H](O)[C@@H]1O` [R isomer], the “Solubility in MeOH (in words)” value (Solubility in MeOH) is reported as “more soluble in MeOH”.
